Data published in patent US20260217701A1, “SELECTIVE BET INHIBITORS AND USES THEREOF” (Tay Therapeutics Limited, priority 2022, published 2026).

How the values were obtained:
[1] = system: idiopathic pulmonary fibrosis (bleomycin); test: Bleomycin IPF model: functional lung volume by micro-CT; type: in vivo, C57BI/6J mice; set-up: Functional Lung Volume, Mean: unit not given here; settings: Day 21
Protocol: Animals were acclimated for two weeks prior to study initiation, and were randomized into the experimental groups outlined in Table 32. Intratracheal (IT) administration of Bleo or PBS control was conducted at the start of the study (Day 0). […] Following administration of Bleo, animals (n=10/group) were included in the study if they met the following guidelines on Day 7: […] Micro-CT imaging was also performed on Day 7 to determine relative fibrosis and on Day 21. […] Images were acquired with a respiratory gated technique with the following parameters: X-ray tube voltage: 90 KV; X-ray tube current: 88 μA; total scan time: 4 minutes. The system was calibrated monthly with standard phantoms for noise, uniformity, low contrast, and resolution to ensure consistency.

[2] = Bleomycin IPF model: body weight and mortality; type: in vivo, C57BI/6J mice; set-up: Mean Body Weight Change: unit not given here
Protocol: Male C57BI/6J mice, aged 12 weeks with an approximate weight of 25-30 g were obtained from Jackson Laboratories (Bar Harbor, ME). Animals were acclimated for two weeks prior to study initiation, and were randomized into the experimental groups outlined in Table 32.
Intratracheal (IT) administration of Bleo or PBS control was conducted at the start of the study (Day 0). […] Animals were weighed on Day 0, and indexed boluses of PBS control (Group 1) or Bleo (Groups 2-6) were delivered by IT administration.
Following administration of Bleo, animals (n=10/group) were included in the study if they met the following guidelines on Day 7: (1) a predictable 5% loss in body weight, and (2) the presence of fibrotic pulmonary lesions, detected by micro-CT imaging. 10 animals from Group 1 additionally proceeded as controls. Animals that continued in the study on Day 7 received an oral gavage (OG) administration of PBS, Compound A (1 mg/kg, 3 mg/kg, 10 mg/kg), or Pirfenidone (300 mg/kg), as outlined in Table 31 in 25 μL boluses every other day (QOD), starting on Day 7. Compound A was formulated in 5% (v/v) DMSO/15% (v/v) PEG 400/80% (v/v) E-TPGS in purified water. […]

Cn1cc(-c2ccccc2)c(-c2cn(C)c(=O)c3[nH]c(-c4cnn(C(F)(F)F)c4)cc23)cc1=O [Compound A, 6-methyl-4-(1-methyl-2-oxo-5-phenyl-1,2-dihydropyridin-4-yl)-2-(1-(trifluoromethyl)-1H-pyrazol-4-yl)-1,6-dihydro-7H-pyrrolo[2,3-c]pyridin-7-one]
Functional Lung Volume, Mean ([1]; Bleo + Compound A (1 mg/kg) OG QOD from D7): 283.165 | Functional Lung Volume, Mean ([1]; Bleo + Compound A (3 mg/kg) OG QOD from D7): 343.5975 | Functional Lung Volume, Mean ([1]; Bleo + Compound A (10 mg/kg) OG QOD from D7): 452.7838 | Mean improvement in functional lung volume compared to Group 2 ([1]; Group 5, 10 mg/kg): ~52.7% | Mean Body Weight Change ([2]; Bleo + Compound A (1 mg/kg) OG QOD from D7, Day 1): 1.269 | Mean Body Weight Change ([2]; Bleo + Compound A (1 mg/kg) OG QOD from D7, Day 2): −0.061 | Mean Body Weight Change ([2]; Bleo + Compound A (1 mg/kg) OG QOD from D7, Day 3): −0.538 | Mean Body Weight Change ([2]; Bleo + Compound A (1 mg/kg) OG QOD from D7, Day 4): −4.382 | Mean Body Weight Change ([2]; Bleo + Compound A (1 mg/kg) OG QOD from D7, Day 5): −8.986 | Mean Body Weight Change ([2]; Bleo + Compound A (1 mg/kg) OG QOD from D7, Day 6): −11.204 | Mean Body Weight Change ([2]; Bleo + Compound A (1 mg/kg) OG QOD from D7, Day 7): −14.465 | Mean Body Weight Change ([2]; Bleo + Compound A (1 mg/kg) OG QOD from D7, Day 8): −18.012 | Mean Body Weight Change ([2]; Bleo + Compound A (1 mg/kg) OG QOD from D7, Day 9): −17.310 | Mean Body Weight Change ([2]; Bleo + Compound A (1 mg/kg) OG QOD from D7, Day 10): −17.947 | Mean Body Weight Change ([2]; Bleo + Compound A (1 mg/kg) OG QOD from D7, Day 11): −16.922 | Mean Body Weight Change ([2]; Bleo + Compound A (1 mg/kg) OG QOD from D7, Day 12): −17.204 | Mean Body Weight Change ([2]; Bleo + Compound A (1 mg/kg) OG QOD from D7, Day 13): −16.710 | Mean Body Weight Change ([2]; Bleo + Compound A (1 mg/kg) OG QOD from D7, Day 14): −16.996 | Mean Body Weight Change ([2]; Bleo + Compound A (1 mg/kg) OG QOD from D7, Day 15): −16.840 | Mean Body Weight Change ([2]; Bleo + Compound A (1 mg/kg) OG QOD from D7, Day 16): 16.698 | Mean Body Weight Change ([2]; Bleo + Compound A (1 mg/kg) OG QOD from D7, Day 17): −16.509 | Mean Body Weight Change ([2]; Bleo + Compound A (1 mg/kg) OG QOD from D7, Day 18): −16.113 | Mean Body Weight Change ([2]; Bleo + Compound A (1 mg/kg) OG QOD from D7, Day 19): −16.612 | Mean Body Weight Change ([2]; Bleo + Compound A (1 mg/kg) OG QOD from D7, Day 20): −16.506 | Mean Body Weight Change ([2]; Bleo + Compound A (1 mg/kg) OG QOD from D7, Day 21): −16.978 | Mean Body Weight Change ([2]; Bleo + Compound A (3 mg/kg) OG QOD from D7, Day 1): 0.712 | Mean Body Weight Change ([2]; Bleo + Compound A (3 mg/kg) OG QOD from D7, Day 2): −0.088 | Mean Body Weight Change ([2]; Bleo + Compound A (3 mg/kg) OG QOD from D7, Day 3): −1.018 | Mean Body Weight Change ([2]; Bleo + Compound A (3 mg/kg) OG QOD from D7, Day 4): −5.198 | Mean Body Weight Change ([2]; Bleo + Compound A (3 mg/kg) OG QOD from D7, Day 5): −8.915 | Mean Body Weight Change ([2]; Bleo + Compound A (3 mg/kg) OG QOD from D7, Day 6): −11.426 | Mean Body Weight Change ([2]; Bleo + Compound A (3 mg/kg) OG QOD from D7, Day 7): −14.024 | Mean Body Weight Change ([2]; Bleo + Compound A (3 mg/kg) OG QOD from D7, Day 8): −18.310 | Mean Body Weight Change ([2]; Bleo + Compound A (3 mg/kg) OG QOD from D7, Day 9): 18.416 | Mean Body Weight Change ([2]; Bleo + Compound A (3 mg/kg) OG QOD from D7, Day 10): −19.029 | Mean Body Weight Change ([2]; Bleo + Compound A (3 mg/kg) OG QOD from D7, Day 11): −17.826 | Mean Body Weight Change ([2]; Bleo + Compound A (3 mg/kg) OG QOD from D7, Day 12): −18.384 | Mean Body Weight Change ([2]; Bleo + Compound A (3 mg/kg) OG QOD from D7, Day 13): −18.055 | Mean Body Weight Change ([2]; Bleo + Compound A (3 mg/kg) OG QOD from D7, Day 14): −18.840 | Mean Body Weight Change ([2]; Bleo + Compound A (3 mg/kg) OG QOD from D7, Day 15): −19.765 | Mean Body Weight Change ([2]; Bleo + Compound A (3 mg/kg) OG QOD from D7, Day 16): −19.797 | Mean Body Weight Change ([2]; Bleo + Compound A (3 mg/kg) OG QOD from D7, Day 17): −20.566 | Mean Body Weight Change ([2]; Bleo + Compound A (3 mg/kg) OG QOD from D7, Day 18): −21.350 | Mean Body Weight Change ([2]; Bleo + Compound A (3 mg/kg) OG QOD from D7, Day 19): −20.021 | Mean Body Weight Change ([2]; Bleo + Compound A (3 mg/kg) OG QOD from D7, Day 20): −22.069 | Mean Body Weight Change ([2]; Bleo + Compound A (3 mg/kg) OG QOD from D7, Day 21): −22.585 | Mean Body Weight Change ([2]; Bleo + Compound A (10 mg/kg) OG QOD from D7, Day 1): 1.987 | Mean Body Weight Change ([2]; Bleo + Compound A (10 mg/kg) OG QOD from D7, Day 2): 2.172 | Mean Body Weight Change ([2]; Bleo + Compound A (10 mg/kg) OG QOD from D7, Day 3): 0.974 | Mean Body Weight Change ([2]; Bleo + Compound A (10 mg/kg) OG QOD from D7, Day 4): 4.101 | Mean Body Weight Change ([2]; Bleo + Compound A (10 mg/kg) OG QOD from D7, Day 5): −8.131 | Mean Body Weight Change ([2]; Bleo + Compound A (10 mg/kg) OG QOD from D7, Day 6): −9.560 | Mean Body Weight Change ([2]; Bleo + Compound A (10 mg/kg) OG QOD from D7, Day 7): −11.173 | Mean Body Weight Change ([2]; Bleo + Compound A (10 mg/kg) OG QOD from D7, Day 8): −14.286 | Mean Body Weight Change ([2]; Bleo + Compound A (10 mg/kg) OG QOD from D7, Day 9): −15.876 | Mean Body Weight Change ([2]; Bleo + Compound A (10 mg/kg) OG QOD from D7, Day 10): −16.428 | Mean Body Weight Change ([2]; Bleo + Compound A (10 mg/kg) OG QOD from D7, Day 11): −14.809 | Mean Body Weight Change ([2]; Bleo + Compound A (10 mg/kg) OG QOD from D7, Day 12): −13.953 | Mean Body Weight Change ([2]; Bleo + Compound A (10 mg/kg) OG QOD from D7, Day 13): −15.394 | Mean Body Weight Change ([2]; Bleo + Compound A (10 mg/kg) OG QOD from D7, Day 14): −13.610 | Mean Body Weight Change ([2]; Bleo + Compound A (10 mg/kg) OG QOD from D7, Day 15): −15.280 | Mean Body Weight Change ([2]; Bleo + Compound A (10 mg/kg) OG QOD from D7, Day 16): −13.218 | Mean Body Weight Change ([2]; Bleo + Compound A (10 mg/kg) OG QOD from D7, Day 17): −13.174 | Mean Body Weight Change ([2]; Bleo + Compound A (10 mg/kg) OG QOD from D7, Day 18): −14.218 | Mean Body Weight Change ([2]; Bleo + Compound A (10 mg/kg) OG QOD from D7, Day 19): −15.010 | Mean Body Weight Change ([2]; Bleo + Compound A (10 mg/kg) OG QOD from D7, Day 20): −16.208 | Mean Body Weight Change ([2]; Bleo + Compound A (10 mg/kg) OG QOD from D7, Day 21): −16.139 | Ending body weight at Day 21 ([2]; Bleo mice, 10 mg/kg): higher ending weight at Day 21 | Body weight course after start of administration ([2]; Bleo mice, all doses tested (1, 3, 10 mg/kg)): weight loss was arrested | Body weight compared with Bleo+Saline treated animals ([2]; Compound A (all doses tested), Pirfenidone (300 mg/kg)): No significant difference | Deaths / mortality ([2]; OG administration, IPF study): no deaths or significant changes in mortality
